Converted amounts (≈) assume the structure as drawn. Where a name gives a salt, the structure may show the parent alone.
Columns and labels:
[1] = system: HFF (normal human foreskin fibroblast); assay: Methylene Blue Growth Inhibition assay, HFF; format: cell-based; settings: 72 h, HFF normal cells, 3 days
Procedure: (§1) Cellular Assays: Methylene Blue Growth Inhibition assay
(§2) Tumor cell lines used in this assay were BT474 (human breast carcinoma) and LNCaP (lymph node metastasis of prostate cancer). HFF (normal human foreskin fibroblast) was also included. All cell lines were cultured in RPMI 1640 media (Invitrogen Corporation 22400-071) containing 10% Fetal Bovine Serum (FBS) at 37° C. in a humidified 5% CO2 incubator. Cells were harvested using trypsin/EDTA, counted using a hemacytometer and plated in 96-well tissue culture plates (Costar 35-3075), 100 uL per well, at the following densities: BT474 15,000 cells/well, LNCaP 5,000 cells/well and HFF 5,000 cells/well. 10 mM stocks of compounds in DMSO were serially diluted in DMSO through nine 3-fold dilutions in 96-well plates (Costar Corning 3363), and stored at −80 C. The next day, compound dilutions were thawed and 4 uL of each transferred to 662 uL RPMI 1640+100 ug/mL gentamicin, resulting in twice the final required test concentrations. 100 uL of compounds diluted in RPMI 1640 were added to all cell lines. The final concentration of DMSO in all wells, including controls, was 0.3%. Cells were incubated at 37 C, 5% CO2 for 3 days. Medium was removed by aspiration. Cell biomass was estimated by staining cells with 80 uL methylene blue (Sigma M9140, 0.5% in 50:50 ethanol:water), and incubating at room temperature for 1 hour. Stain was aspirated and the plates rinsed by immersion in water, then air-dried. Stain was released from cells by adding 100 uL of solubilizing solution (1% N-lauroyl sarcosine, sodium salt, Sigma L5125, in PBS) and incubating at room temperature for at least 30 minutes. Plates were shaken and the optical density at 620 nm was measured on a microplate reader. Percent inhibition of cell growth was calculated relative to vehicle-treated control wells. Concentration of compound that inhibits 50% of cell growth (IC50) was interpolated using non-linear regression (Levenberg-Marquadt) and the equation, y=Vmax*(1−(x̂n/K̂n+x̂n)))+Y2. [Ref: Mager, M. E. (1972) Data Analysis in Biochemistry and Biophysics. New York: Academic Press]

[2] = system: LNCaP (lymph node metastasis of prostate cancer); assay: Methylene Blue Growth Inhibition assay, LNCaP; format: cell-based; settings: Homo sapiens, 72 h, 3 days
Procedure: as §1, §2

[3] = system: BT474 (human breast carcinoma); assay: Methylene Blue Growth Inhibition assay, BT474; format: cell-based; settings: BT-474, 72 h, BT474, 3 days
Procedure: as §1, §2

[4] = Solubility in 50 mM phosphate buffer at pH 7.4; format: physicochemical; settings: for solubility: 50 mM phosphate buffer, pH 7.4, aqueous buffer; for Solubility (statement in words): suitability for IV dosage forms, solubility in water
[5] = molecular target: T1, FL AKT2 (Homo sapiens, UniProt P31751); assay: Full-length AKT enzyme assay (substrate phosphorylation, SPA); format: biochemical; settings: 4 uM ATP
T1 construct: 0.008 uM, FL AKT2 in the above full-length AKT enzyme assay

[6] = molecular target: FL AKT1 (Homo sapiens, UniProt P31749); assay: as above; format: biochemical; settings: 4 uM ATP
Sequence of FL AKT1 (P31749 whole entry): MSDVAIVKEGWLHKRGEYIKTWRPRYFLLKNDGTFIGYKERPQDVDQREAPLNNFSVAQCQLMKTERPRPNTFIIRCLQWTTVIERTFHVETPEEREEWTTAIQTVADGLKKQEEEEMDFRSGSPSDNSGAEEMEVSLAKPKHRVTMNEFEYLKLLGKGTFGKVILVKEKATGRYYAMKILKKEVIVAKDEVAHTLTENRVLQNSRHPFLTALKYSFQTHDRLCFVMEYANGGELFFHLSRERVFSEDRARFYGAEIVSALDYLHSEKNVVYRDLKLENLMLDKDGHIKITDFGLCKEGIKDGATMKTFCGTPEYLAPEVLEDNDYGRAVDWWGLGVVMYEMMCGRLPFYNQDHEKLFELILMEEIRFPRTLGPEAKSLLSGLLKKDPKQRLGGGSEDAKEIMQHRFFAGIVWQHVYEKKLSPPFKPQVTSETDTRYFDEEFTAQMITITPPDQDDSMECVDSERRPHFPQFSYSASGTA

T1 sequence (P31751 whole entry): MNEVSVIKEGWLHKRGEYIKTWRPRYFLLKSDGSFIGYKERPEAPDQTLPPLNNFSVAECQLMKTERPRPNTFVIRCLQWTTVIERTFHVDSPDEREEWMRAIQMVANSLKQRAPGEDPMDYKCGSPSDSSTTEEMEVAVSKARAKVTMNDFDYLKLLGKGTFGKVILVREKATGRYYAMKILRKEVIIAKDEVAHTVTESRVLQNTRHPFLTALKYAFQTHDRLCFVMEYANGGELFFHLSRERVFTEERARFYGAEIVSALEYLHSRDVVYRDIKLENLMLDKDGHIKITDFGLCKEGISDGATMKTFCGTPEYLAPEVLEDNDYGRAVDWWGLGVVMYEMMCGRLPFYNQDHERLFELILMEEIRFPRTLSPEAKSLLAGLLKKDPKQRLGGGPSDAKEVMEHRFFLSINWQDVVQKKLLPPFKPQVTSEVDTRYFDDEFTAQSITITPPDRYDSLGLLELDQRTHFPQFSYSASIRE

For `CCn1c(-c2nonc2N)nc2c(-c3ccccc3)ncc(OCCCN3CCOCC3)c21` [Compound R, 4-(1-ethyl-7-{[3-(4-morpholinyl)propyl]oxy}-4-phenyl-1H-imidazo[4,5-c]pyridin-2-yl)-1,2,5-oxadiazol-3-amine trifluoroacetate], the IC50 [1] was 19900 nM, the IC50 [2] was 1420 nM and the IC50 [3] was 17700 nM.
In the case of `CCn1c(-c2nonc2N)nc2c(-c3ccccc3)ncc(OCC(O)CN3CCOCC3)c21` (stereo not shown) [Compound S, 1-{[2-(4-amino-1,2,5-oxadiazol-3-yl)-1-ethyl-4-phenyl-1H-imidazo[4,5-c]pyridin-7-yl]oxy}-3-(4-morpholinyl)-2-propanol trifluoroacetate], the IC50 [1] is reported as over 30000 nM, the IC50 [2] is reported as 7770 nM and the IC50 [3] is reported as over 30000 nM.
For `CCn1c(-c2nonc2N)nc2c(-c3ccccc3)ncc(OCCN3CCOCC3)c21` [Compound T, 4-(1-ethyl-7-{[2-(4-morpholinyl)ethyl]oxy}-4-phenyl-1H-imidazo[4,5-c]pyridin-2-yl)-1,2,5-oxadiazol-3-amine trifluoroacetate], the IC50 [1] was 18900 nM, the IC50 [2] was over 30000 nM and the IC50 [3] was over 30000 nM.
For `CCn1c(-c2nonc2N)nc2cncc(OC3CCNCC3)c21.O=C(O)C(F)(F)F` [Compound U, 4-[1-ethyl-7-(piperidin-4-yloxy)-1H-imidazo[4,5-c]pyridine-2-yl]-furazan-3-ylamine trifluoroacetate], the IC50 [1] was 6470 nM, the solubility [4] was 200 µM and the IC50 [3] was 4510 nM.
`CCn1c(-c2nonc2N)nc2c(-c3ccccc3)ncc(OCC3CCCNC3)c21.O=C(O)C(F)(F)F` (stereo not shown) [Compound V, 4-{1-ethyl-4-phenyl-7-[(3-piperidinylmethyl)oxy]-1H-imidazo-[4,5-c]pyridin-2-yl}-1,2,5-oxadiazol-3-amine trifluoroacetate] gave an IC50 [1] of 570 nM, a solubility [4] of 9 µM and an IC50 [2] of 1640 nM. For the same compound, the IC50 [3] was 1870 nM.
In the case of `CCn1c(-c2nonc2N)nc2c(C#CC(C)(C)O)ncc(OCCCCN)c21.O=C(O)C(F)(F)F` [Compound W, 4-[7-[(4-aminobutyl)oxy]-2-(4-amino-1,2,5-oxadiazol-3-yl)-1-ethyl-1H-imidazo[4,5-c]pyridin-4-yl}-2-methyl-3-butyn-2-ol trifluoroacetate], the IC50 [1] is reported as 22100 nM, the solubility [4] is reported as 210 µM and the IC50 [2] is reported as 836 nM. It also gave an IC50 [3] of 8210 nM.
For `CCn1c(-c2nonc2N)nc2c(C#CC(C)(C)O)ncc(OCCCN)c21.O=C(O)C(F)(F)F` [Compound X, 4-{2-(4-amino-1,2,5-oxadiazol-3-yl)-7-[(3-aminopropyl)oxy]-1-ethyl-1H-imidazo[4,5-c]pyridin-4-yl}-2-methyl-3-butyn-2-ol trifluoroacetate], the IC50 [1] was 18100 nM, the solubility [4] was 173 µM and the IC50 [2] was 258 nM. The IC50 [3] was 241 nM.
In the case of `CCn1c(-c2nonc2N)nc2c(C#CC(C)(C)O)ncc(OCC3CCNCC3)c21.O=C(O)C(F)(F)F` [Compound Y, 4-{2-(4-amino-1,2,5-oxadiazol-3-yl)-1-ethyl-7-[(4-piperidinylmethyl)oxy]-1H-imidazo[4,5-c]pyridin-4-yl}-2-methyl-3-butyn-2-ol trifluoroacetate], the IC50 [1] is reported as over 30000 nM, the solubility [4] is reported as 159 µM and the IC50 [2] is reported as 217 nM. It also gave an IC50 [3] of 2590 nM.
For `CCn1c(-c2nonc2N)nc2c(C#CC(C)(C)O)ncc(OCCCNCCc3ccc(OC)cc3)c21` [Compound Z, 4-(2-(4-amino-1,2,5-oxadiazol-3-yl)-1-ethyl-7-{[3-({2-[4-(methyloxy)phenyl]ethyl}amino)propyl]oxy}-1H-imidazo[4,5-c]pyridin-4-yl)-2-methyl-3-butyn-2-ol], the IC50 [1] was 5510 nM, the solubility [4] was 37 µM (≈ 19.2 µg/mL) and the IC50 [2] was 48 nM. For the same compound, the IC50 [3] was 266 nM.
Compound `CCn1c(-c2nonc2N)nc2c(C#CC(C)(C)O)ncc(OCC[C@@H]3CCCN3)c21` [Example 1, 4-[2-(4-amino-1,2,5-oxadiazol-3-yl)-1-ethyl-7-({2-[(2S)-2-pyrrolidinyl]ethyl}oxy)-1H-imidazo[4,5-c]pyridin-4-yl]-2-methyl-3-butyn-2-ol] has an IC50 [5] of 8 nM, an IC50 [6] of 2 nM and an IC50 [1] of 12600 nM. The solubility [4] was 222 µM (≈ 94.5 µg/mL), the “Solubility (statement in words)” value [4] was “suitable for formulation into dosage forms for IV administration” and the IC50 [2] was 52 nM. It also gave an IC50 [3] of 176 nM.
With `CCn1c(-c2nonc2N)nc2c(C#CC(C)(C)O)ncc(OCC[C@@H]3CCCCN3)c21` [Example 2, 4-[2-(4-amino-1,2,5-oxadiazol-3-yl)-1-ethyl-7-({2-[(2S)-2-Piperidinyl]ethyl}oxy)-1H-imidazo[4,5-c]pyridin-4-yl]-2-methyl-3-butyn-2-ol] the IC50 [1] was 14200 nM, the solubility [4] was 200 µM (≈ 87.9 µg/mL) and the “Solubility (statement in words)” value [4] was “suitable for formulation into dosage forms for IV administration”. It also gave an IC50 [2] of 65 nM and an IC50 [3] of 255 nM.
For `CCn1c(-c2nonc2N)nc2c(C#CC(C)(C)O)ncc(OCCC3CSCCN3)c21` (stereo not shown) [Example 3, 4-(2-(4-amino-1,2,5-oxadiazol-3-yl)-1-ethyl-7-{[2-(3-thiomorpholinyl)ethyl]oxy}-1H-imidazo[4,5-c]pyridin-4-yl)-2-methyl-3-butyn-2-ol], the IC50 [1] was 3590 nM, the solubility [4] was 7 µM (≈ 3.2 µg/mL) and the “Solubility (statement in words)” value [4] was “suitable for formulation into dosage forms for IV administration”. The IC50 [2] was 7 nM and the IC50 [3] was 26 nM.
